Source: the Deep4Chem optical property database
“And” between values parts separate entries of the source, which are not always exact repeats. Equal values may be shown once.

Assay: photoluminescence quantum yield (fraction); solvent given as SMILES

Work on `CC1(C)c2ccccc2N(c2ccc3c(c2)c2cc(N4c5ccccc5C(C)(C)c5ccccc54)ccc2c2nc4ccccc4nc32)c2ccccc21` yielded a photoluminescence quantum yield (in c1cc(-c2cccc(-n3c4ccccc4c4ccccc43)c2)cc(-n2c3ccccc3c3ccccc32)c1) of 0.84.
In the case of `CN(C)c1ccc(/C=C/C(=O)O)cc1`, the photoluminescence quantum yield (in C1CCOC1) is reported as 0.0134, the photoluminescence quantum yield (in CC#N) is reported as 0.0205 and the photoluminescence quantum yield (in CCCCO) is reported as 0.0071. For the same compound, the photoluminescence quantum yield (in O) was 0.002 and the photoluminescence quantum yield (in c1ccccc1) was 0.0112.
`c1ccc(-c2cc(-c3ccc4ccc5c(-c6ccnc(-c7ccccn7)c6)ccc6ccc3c4c65)ccn2)nc1` showed a photoluminescence quantum yield (in C1CCOC1) of 0.65, a photoluminescence quantum yield (in CC#N) of 0.56 and a photoluminescence quantum yield (in CCC#N) of 0.56. The photoluminescence quantum yield (in CCCC#N) was 0.58, the photoluminescence quantum yield (in CCCCCC) was 0.6 and the photoluminescence quantum yield (in CCCO) was 0.38. The photoluminescence quantum yield (in CCO) was 0.39, the photoluminescence quantum yield (in CO) was 0.27 and the photoluminescence quantum yield (in Cc1ccccc1) was 0.56.
Work on `Nc1cccc2cccc(N)c12` yielded a photoluminescence quantum yield (in CC#N) of 0.1, a photoluminescence quantum yield (in CO) of 0.09 and a photoluminescence quantum yield (in CS(C)=O) of 0.3. The photoluminescence quantum yield (in Cc1ccccc1) was 0.13.
Work on `c1ccc(N(c2ccccc2)c2ccc(-c3ncc(-c4ccc(-c5cnc(-c6ccc(N(c7ccccc7)c7ccccc7)cc6)s5)s4)s3)cc2)cc1` yielded a photoluminescence quantum yield (in CO) of 0.16.
With `COc1ccc(-c2sc3c(-c4ccc(OC)cc4)c4n(c3c2-c2ccc(OC)cc2)[B-](F)(F)[N+]2=Cc3c(-c5ccc(OC)cc5)c5sc(-c6ccc(OC)cc6)c(-c6ccc(OC)cc6)c5n3[B-](F)(F)[N+]2=C4)cc1` the photoluminescence quantum yield (in CC#N) was 0.36, the photoluminescence quantum yield (in CCCCCC) was 0.46 and the photoluminescence quantum yield (in CN(C)C=O) was 0.32. For the same compound, the photoluminescence quantum yield (in Cc1ccccc1) was 0.51 and the photoluminescence quantum yield (in ClCCl) was 0.5.
`c1ccc2c(c1)c1ccccc1c1ccccc21` showed a photoluminescence quantum yield (in ClCCl) of 0.02.
For `O=P1(c2ccccc2)C(c2ccc(N(c3ccccc3)c3ccccc3)cc2)=Cc2cc3ccccc3cc21` (centres undefined), the photoluminescence quantum yield (in ClCCl) was 0.85.
Compound `c1ccc(-c2ccc3c4ccc(-c5ccccc5)c5c(-c6ccccc6)ccc(c6cccc2c63)c54)cc1` has a photoluminescence quantum yield (in ClCCl) of 0.94.
With `C[Si](C)(C)c1ccc([Si](C)(C)C)c2ccccc12` the photoluminescence quantum yield (in C1CCCCC1) was 0.33.
`Cc1ccccc1-c1c2cccc3c(-c4ccc(C(C)(C)C)cc4)cc4c(-c5ccccc5C)c5cccc6c(-c7ccc(C(C)(C)C)cc7)cc1c(c65)c4c32` gave a photoluminescence quantum yield (in ClCCl) of 0.28.
For `Cc1ccc2nc(-c3cccc4nc(C)[nH]c(=O)c34)[nH]c2c1`, the photoluminescence quantum yield (in CN(C)C=O) was 0.036.
In the case of `c1csc(-c2nc3ccccc3c3cc4ccccn4c23)c1`, the photoluminescence quantum yield (in CS(C)=O) is reported as 0.2.
Work on `COc1c2ccccc2c(OC)c2c1c1c(C)ccc(OC)c1n2C` yielded a photoluminescence quantum yield (in C1CCCCC1) of 0.23, a photoluminescence quantum yield (in CC#N) of 0.26 and a photoluminescence quantum yield (in CO) of 0.25. For the same compound, the photoluminescence quantum yield (in ClCCl) was 0.31.
In the case of `COc1cc2c3c4c(c5ccc(C(C)(C)C)cc5c5cc(C(C)(C)C)cc(c2c(OC)c1OC)c45)=[N+]1C3=Nc2c3c4cc(OC)c(OC)c(OC)c4c4cc(C(C)(C)C)cc5c6cc(C(C)(C)C)ccc6c(c3c54)n2[B-]1(F)F`, the photoluminescence quantum yield (in Cc1ccccc1) is reported as 0.07.
In the case of `COc1ccc2c3c(c4ccc(OC)cc4c2c1)C1(c2ccccc2-c2ccccc21)c1ccccc1-3`, the photoluminescence quantum yield (in C1CCCCC1) is reported as 0.21.
`Cc1c(C)n2c(COC(=O)c3ccc(F)cc3)c(C)c(=O)n2c1=O` showed a photoluminescence quantum yield (in CCO) of 0.631.
In the case of `CCOC(=O)c1ccc2c(c1)sc1c3ccc(C(=O)OCC)cc3sc21`, the photoluminescence quantum yield (in CCCO) is reported as 0.083.
Compound `CCCCCCCCC1(CCCCCCCC)c2cc(-c3ccc(C#N)cc3)ccc2-c2ccc(-c3ccc(C#N)cc3)cc21` has a photoluminescence quantum yield (in ClC(Cl)Cl) of 0.95.
For `C(#Cc1cccs1)C(C#Cc1cccs1)=Cc1ccc(C=C(C#Cc2cccs2)C#Cc2cccs2)cc1`, the photoluminescence quantum yield (in ClC(Cl)Cl) was 0.32 and 0.25.
With `CSc1ccc(/C=C/c2cnc3ccccc3n2)cc1` the photoluminescence quantum yield (in ClCCl) was 0.02.
Compound `c1ccc(-c2nc(-c3ccc(-c4nc(-c5ccccc5)c(-c5ccccc5)[nH]4)cc3)[nH]c2-c2ccccc2)cc1` has a photoluminescence quantum yield (in CC#N) of 0.75 and a photoluminescence quantum yield (in CS(C)=O) of 0.94.
With `CC[N+]1(CC)CN2C(=N1)C(C(=O)O)=Cc1cc(F)ccc12` the photoluminescence quantum yield (in O) was 0.344.
`CCn1c2ccccc2c2cc(-c3cc(-c4ccc5c(c4)c4ccccc4n5CC)nc(SC)n3)ccc21` gave a photoluminescence quantum yield (in C1CCOC1) of 0.23, a photoluminescence quantum yield (in CCOC(C)=O) of 0.39 and a photoluminescence quantum yield (in CN(C)C=O) of 0.46. For the same compound, the photoluminescence quantum yield (in Cc1ccccc1) was 0.35 and the photoluminescence quantum yield (in ClCCl) was 0.31.
Work on `N#Cc1c(-n2c3ccccc3c3cc(Br)ccc32)c(C#N)c(-n2c3ccccc3c3cc(Br)ccc32)c(-n2c3ccccc3c3cc(Br)ccc32)c1-n1c2ccccc2c2cc(Br)ccc21` yielded a photoluminescence quantum yield (in Cc1ccccc1) of 0.85.
Work on `CN(C)c1ccc(C(=Cc2ccc(/C=C(\C#N)c3ccccc3)cc2)c2ccc(N(C)C)cc2)cc1` yielded a photoluminescence quantum yield (in C1CCOC1) of 0.053.
For `COc1cccc(-c2nc3sc4ccccc4c3s2)c1`, the photoluminescence quantum yield (in CS(C)=O) was 0.62.
With `COc1ccc(C2=C/C(=C\c3ccccc3)C(=O)N2)cc1OC` the photoluminescence quantum yield (in C1COCCO1) was 0.108.
For `COC(=O)COc1ccc(/C=C/C2=[N+]3C(=C(c4ccc(N5CCCCC5)cc4)c4c(C)cc(C)n4[B-]3(F)F)C(C)=C2)cc1`, the photoluminescence quantum yield (in CO) was 0.87.
With `C(S/C=C/c1ccc(/C=C/SC=C2CCCC2)cc1)=C1CCCC1` the photoluminescence quantum yield (in ClCCl) was 0.021.
`C(=C\c1ncccn1)/c1ccc(-c2ccc(N(c3ccccc3)c3ccccc3)cc2)cc1` showed a photoluminescence quantum yield (in ClCCl) of 0.6.
In the case of `CCN(CC)c1ccc2cc(/C=C/C(=C(C#N)C#N)c3ccc4c(c3)c3ccccc3n4CC)c(=O)oc2c1`, the photoluminescence quantum yield (in CC(C)=O) is reported as 0.174, the photoluminescence quantum yield (in CCOC(C)=O) is reported as 0.125 and the photoluminescence quantum yield (in CN(C)C=O) is reported as 0.194. The photoluminescence quantum yield (in CS(C)=O) was 0.185, the photoluminescence quantum yield (in Cc1ccccc1) was 0.041 and the photoluminescence quantum yield (in ClCCl) was 0.146.
